Where a name gives a salt, the structure may show the parent alone.
Legend:
[1] = molecular target: human GSK-3β (Homo sapiens, UniProt P49841); assay: Assay (I): inhibition of GSK-3, 33P-ATP phosphorylation of a glycogen synthase derived substrate; type: biochemical; conditions: 35 μM substrate, 0.1 mM 33P-labeled ATP, 60 min at room temperature
Protocol: Inhibition of GSK-3 by a test compound was evaluated using human GSK-3β and a glycogen synthase derived substrate with the following amino acid sequence:
In brief, GSK-3β was incubated with 35 μM substrate and varying concentrations of test compound in a buffer containing 0.1 mM ^33P-labeled ATP, 10 mM magnesium acetate, 8 mM MOPS pH 7.0, 0.2 mM EDTA, 0.1% dithiothreitol and 0.03% Triton-X100 for 60 min at room temperature. The reaction was performed using 96-well plates. The reaction was terminated by adding 13 μl 2% phosphoric acid to each well, and 10 μl was spotted onto P30 paper which was washed 4 times in 0.5% phosphoric acid to remove non-incorporated ^33P-labeled ATP. After drying the radioactivity was counted in a Wallac. Dose-response profiles were generated, and the IC50 value for inhibition of GSK-3 by the test compound was calculated using a four-parameter logistic function.

[2] = system: cyclin-dependent kinases (CDKs); conditions: at the tested concentration; Table I of WO 99/21845; cited from earlier work

Sequence of human GSK-3β (P49841 whole entry): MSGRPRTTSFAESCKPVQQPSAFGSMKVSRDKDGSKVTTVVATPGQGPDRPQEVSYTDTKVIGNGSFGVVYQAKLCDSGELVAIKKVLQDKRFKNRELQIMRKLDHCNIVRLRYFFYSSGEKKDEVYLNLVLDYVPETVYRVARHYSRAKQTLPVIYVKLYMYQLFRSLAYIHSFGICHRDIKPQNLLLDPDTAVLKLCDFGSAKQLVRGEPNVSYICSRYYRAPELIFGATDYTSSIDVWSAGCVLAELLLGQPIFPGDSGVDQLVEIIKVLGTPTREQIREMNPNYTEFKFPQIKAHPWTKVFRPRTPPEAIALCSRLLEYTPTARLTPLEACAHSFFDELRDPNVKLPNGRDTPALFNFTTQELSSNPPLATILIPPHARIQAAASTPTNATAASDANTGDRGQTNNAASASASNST

Row | Compound | melting point [°C] | IC50 [1] [nM] | CDK inhibition [2]
1 | CN1CCN(CCCNc2nc(N)c(C(=O)c3ccc(Cl)s3)s2)CC1 (as salt: hydrochloride) [Example 8, {4-Amino-2-[3-(4-methylpiperazin-1-yl)propylamino]thiazol-5-yl}-(5-chlorothiophen-2-yl)methanone] | 210 to 212 | – | –
2 | CC(C)(C)OC(=O)NCCCNc1nc(N)c(C(=O)c2ccc(Cl)s2)s1 [Example 3, 3-[4-Amino-5-(5-chlorothiophene-2-carbonyl)thiazol-2-ylamino]propylcarbamic acid tert-butyl ester] | – | < 1000 | –
3 | CC(C)(C)OC(=O)NCCCNc1nc(N)c(C(=O)c2cccc(OCc3ccccc3)c2)s1 [Example 6, {3-[4-Amino-5-(3-benzyloxybenzoyl)thiazol-2-ylamino]propyl}carbamic acid tert-butyl ester] | – | < 1000 | –
4 | CN1CCN(CCCNc2nc(N)c(C(=O)c3cccc(OCc4ccccc4)c3)s2)CC1 [Example 10, {4-Amino-2-[3-(4-methylpiperazin-1-yl)propylamino]thiazol-5-yl}-(3-benzyloxyphenyl)methanone] | – | < 1000 | –
5 | Nc1nc(NCCN2CCCCC2)sc1C(=O)c1ccc(F)cc1 [I(6)] | – | – | No CDK inhibition was observed

Further lines, with some results ahead:

Row | melting point [°C] | IC50 [1] [nM] | Compound | CDK inhibition [2]
6 | 99 to 100 | – | CN1CCN(CCCNc2nc(N)c(C(=O)c3cccc(OCc4ccccc4)c3)s2)CC1 (as salt: hydrochloride) [Example 10, {4-Amino-2-[3-(4-methylpiperazin-1-yl)propylamino]thiazol-5-yl}-(3-benzyloxyphenyl)methanone] | –
7 | – | < 1000 | CC(C)(C)OC(=O)N1CCC(Nc2nc(N)c(C(=O)c3cccc(OCc4ccccc4)c3)s2)CC1 [Example 5, 4-[4-Amino-5-(3-benzyloxybenzoyl)thiazol-2-ylamino]piperidine-1-carboxylic acid tert-butyl ester] | –
8 | 224 to 225 | < 1000 | Nc1nc(NCCCN2CCCC2=O)sc1C(=O)c1ccc(Cl)s1 [Example 7, 1-{3-[4-Amino-5-(5-chlorothiophene-2-carbonyl)thiazol-2-ylamino]propyl}pyrrolidin-2-one] | –
9 | 184 | < 1000 | Nc1nc(NCCCN2CCCC2=O)sc1C(=O)c1cccc(OCc2ccccc2)c1 [Example 9] | –

— patent publication US20040210063A1 (priority 2001, published 2004)
